ChEMBL document CHEMBL5150077, “Identification of TUL01101: A Novel Potent and Selective JAK1 Inhibitor for the Treatment of Rheumatoid Arthritis” (J Med Chem, 2022)
pIC50: −log10 of the molar value.

Columns and labels:
[1] = target: Tyrosine-protein kinase JAK1 (Homo sapiens, UniProt P23458); assay: Inhibition of recombinant human JAK1 using MGEEPLYWSFPAKKK as substrate incubated for 40 mins in presence of Mg/ATP mixture by [gamma p33]-ATP based scintillation counting method
[2] = target: Non-receptor tyrosine-protein kinase TYK2 (Homo sapiens, UniProt P29597); assay: Inhibition of recombinant human TYK2 using GGMEDIYFEFMGGKKK as substrate incubated for 40 mins in presence of Mg/ATP mixture by [gamma p33]-ATP based scintillation counting method
Chain of Non-receptor tyrosine-protein kinase TYK2 (P29597 whole entry): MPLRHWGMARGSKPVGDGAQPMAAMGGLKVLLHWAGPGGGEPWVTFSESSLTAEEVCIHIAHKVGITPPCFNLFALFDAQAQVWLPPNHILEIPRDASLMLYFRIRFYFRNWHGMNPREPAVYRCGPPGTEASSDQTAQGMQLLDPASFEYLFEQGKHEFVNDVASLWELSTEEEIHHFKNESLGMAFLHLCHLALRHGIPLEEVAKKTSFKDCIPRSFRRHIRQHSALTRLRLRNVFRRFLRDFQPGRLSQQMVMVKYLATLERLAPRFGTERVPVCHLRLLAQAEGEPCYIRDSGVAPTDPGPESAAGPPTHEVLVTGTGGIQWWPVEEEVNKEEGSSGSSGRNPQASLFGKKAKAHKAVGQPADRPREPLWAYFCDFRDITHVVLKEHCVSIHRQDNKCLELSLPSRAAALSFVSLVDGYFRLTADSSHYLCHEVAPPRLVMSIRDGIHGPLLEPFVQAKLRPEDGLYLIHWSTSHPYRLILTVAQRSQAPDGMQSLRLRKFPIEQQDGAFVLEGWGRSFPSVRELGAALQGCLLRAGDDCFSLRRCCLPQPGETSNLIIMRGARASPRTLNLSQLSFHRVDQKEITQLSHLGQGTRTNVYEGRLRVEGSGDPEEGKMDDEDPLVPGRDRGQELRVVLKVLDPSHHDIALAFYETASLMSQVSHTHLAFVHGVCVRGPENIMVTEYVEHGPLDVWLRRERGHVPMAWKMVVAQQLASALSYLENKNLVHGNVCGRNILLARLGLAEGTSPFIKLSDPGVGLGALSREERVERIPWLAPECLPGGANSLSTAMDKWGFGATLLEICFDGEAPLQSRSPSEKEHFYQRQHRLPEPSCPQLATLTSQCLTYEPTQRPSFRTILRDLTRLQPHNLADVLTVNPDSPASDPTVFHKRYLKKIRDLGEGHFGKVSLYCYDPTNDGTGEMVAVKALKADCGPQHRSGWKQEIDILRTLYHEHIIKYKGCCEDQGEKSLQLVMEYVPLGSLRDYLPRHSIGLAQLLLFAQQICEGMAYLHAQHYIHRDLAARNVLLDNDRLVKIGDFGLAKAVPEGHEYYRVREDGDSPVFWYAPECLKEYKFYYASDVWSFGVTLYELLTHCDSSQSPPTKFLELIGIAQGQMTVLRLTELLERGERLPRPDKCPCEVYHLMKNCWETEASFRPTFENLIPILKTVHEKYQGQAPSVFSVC

Homo sapiens = organism: Homo sapiens; assay: Selectivity index, ratio of IC50 for inhibition of recombinant human TYK2 to IC50 for inhibition of recombinant human JAK1
[3] = Apparent permeability across basolateral to apical side in human Caco-2 cells at 10 uM measured after 120 mins by LC-MS/MS analysis
[4] = Efflux ratio of apparent permeability from basolateral to apical side over apical to basolateral side in human Caco-2 cells at 10 uM incubated for 120 mins by LC-MS/MS analysis
[5] = Plasma protein binding in human assessed as unbound fraction at 2 uM incubated for 4 hrs by LC/MS/MS based balanced dialysis method
[6] = Plasma protein binding in mouse assessed as unbound fraction at 2 uM incubated for 4 hrs by LC/MS/MS based balanced dialysis method
[7] = Plasma protein binding in rat assessed as unbound fraction at 2 uM incubated for 4 hrs by LC/MS/MS based balanced dialysis method
[8] = Microsomal stability in rat liver microsomes assessed as intrinsic clearance at 1 uM incubated for 60 mins in presence of NADPH regenerating system by LC-MS/MS analysis; assay type: ADME, Microsome; details: read-out: CLH
[9] = Microsomal stability in human liver microsomes assessed as intrinsic clearance at 1 uM incubated for 60 mins in presence of NADPH regenerating system by LC-MS/MS analysis; assay type: ADME, Microsome; details: read-out: CLH
[10] = Metabolic stability in rat hepatocytes assessed as intrinsic clearance at 1 uM incubated for 90 mins by LC/MS/MS analysis; assay type: ADME, cell-based, Hepatocyte
[11] = Metabolic stability in human hepatocytes assessed as intrinsic clearance at 1 uM incubated for 90 mins by LC/MS/MS analysis; assay type: ADME, cell-based, Hepatocyte
Cytochrome P450 2B6 = target: T1, Cytochrome P450 2B6 (Homo sapiens, UniProt P20813); assay: Inhibition of CYP2B6 in human liver microsomes incubated in presence NADPH by LC-MS/MS analysis
T1 sequence (P20813 whole entry): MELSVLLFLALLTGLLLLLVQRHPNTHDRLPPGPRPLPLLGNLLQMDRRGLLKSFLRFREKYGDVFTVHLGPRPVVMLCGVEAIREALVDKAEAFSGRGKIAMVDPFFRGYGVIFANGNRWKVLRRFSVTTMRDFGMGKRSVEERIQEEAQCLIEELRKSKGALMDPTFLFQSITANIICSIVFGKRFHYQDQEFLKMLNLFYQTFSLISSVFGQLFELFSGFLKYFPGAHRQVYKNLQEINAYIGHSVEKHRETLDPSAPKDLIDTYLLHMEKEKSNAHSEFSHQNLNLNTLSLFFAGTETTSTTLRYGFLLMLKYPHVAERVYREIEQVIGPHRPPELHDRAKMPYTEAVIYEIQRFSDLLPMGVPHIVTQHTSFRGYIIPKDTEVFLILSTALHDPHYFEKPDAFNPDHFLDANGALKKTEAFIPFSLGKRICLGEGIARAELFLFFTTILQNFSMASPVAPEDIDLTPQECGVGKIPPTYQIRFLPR

Cytochrome P450 2C19 = Cytochrome P450 2C19 (Homo sapiens, UniProt P33261); assay: Inhibition of CYP2C19 in human liver microsomes incubated in presence NADPH by LC-MS/MS analysis
Chain of Cytochrome P450 2C19 (P33261 whole entry): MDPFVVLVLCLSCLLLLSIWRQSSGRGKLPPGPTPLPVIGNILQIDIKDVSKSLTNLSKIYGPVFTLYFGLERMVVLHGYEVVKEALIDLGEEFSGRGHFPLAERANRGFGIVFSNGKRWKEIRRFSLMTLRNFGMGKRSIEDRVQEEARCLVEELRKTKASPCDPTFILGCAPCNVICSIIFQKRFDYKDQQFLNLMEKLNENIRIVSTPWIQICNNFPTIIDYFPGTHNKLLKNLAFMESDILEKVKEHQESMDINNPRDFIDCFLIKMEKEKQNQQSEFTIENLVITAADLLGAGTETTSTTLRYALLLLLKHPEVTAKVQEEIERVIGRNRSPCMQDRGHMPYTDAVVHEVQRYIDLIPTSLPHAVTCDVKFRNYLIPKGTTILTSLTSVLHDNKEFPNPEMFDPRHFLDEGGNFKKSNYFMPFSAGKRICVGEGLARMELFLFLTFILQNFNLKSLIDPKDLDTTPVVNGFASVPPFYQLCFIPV

Cytochrome P450 2D6 = Cytochrome P450 2D6 (Homo sapiens, UniProt P10635); assay: Inhibition of CYP2D6 in human liver microsomes incubated in presence NADPH by LC-MS/MS analysis
Chain of Cytochrome P450 2D6 (P10635 whole entry): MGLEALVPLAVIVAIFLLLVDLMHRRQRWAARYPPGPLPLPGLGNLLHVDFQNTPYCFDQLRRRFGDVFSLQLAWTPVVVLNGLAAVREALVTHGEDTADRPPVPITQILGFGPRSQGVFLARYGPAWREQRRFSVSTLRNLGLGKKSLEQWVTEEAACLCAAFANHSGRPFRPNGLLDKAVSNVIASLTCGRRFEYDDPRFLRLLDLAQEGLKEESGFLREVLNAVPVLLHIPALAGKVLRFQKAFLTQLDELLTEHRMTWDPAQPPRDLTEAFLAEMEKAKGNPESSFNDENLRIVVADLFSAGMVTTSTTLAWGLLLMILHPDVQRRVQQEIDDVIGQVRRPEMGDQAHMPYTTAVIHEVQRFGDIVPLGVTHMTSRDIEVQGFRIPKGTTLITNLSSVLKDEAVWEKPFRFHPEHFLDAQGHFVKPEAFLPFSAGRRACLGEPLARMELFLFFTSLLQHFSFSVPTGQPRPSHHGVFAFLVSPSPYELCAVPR

Cytochrome P450 3A4 = Cytochrome P450 3A4 (Homo sapiens, UniProt P08684); assay: Inhibition of CYP3A4 in human liver microsomes incubated in presence NADPH by LC-MS/MS analysis
Chain of Cytochrome P450 3A4 (P08684 whole entry): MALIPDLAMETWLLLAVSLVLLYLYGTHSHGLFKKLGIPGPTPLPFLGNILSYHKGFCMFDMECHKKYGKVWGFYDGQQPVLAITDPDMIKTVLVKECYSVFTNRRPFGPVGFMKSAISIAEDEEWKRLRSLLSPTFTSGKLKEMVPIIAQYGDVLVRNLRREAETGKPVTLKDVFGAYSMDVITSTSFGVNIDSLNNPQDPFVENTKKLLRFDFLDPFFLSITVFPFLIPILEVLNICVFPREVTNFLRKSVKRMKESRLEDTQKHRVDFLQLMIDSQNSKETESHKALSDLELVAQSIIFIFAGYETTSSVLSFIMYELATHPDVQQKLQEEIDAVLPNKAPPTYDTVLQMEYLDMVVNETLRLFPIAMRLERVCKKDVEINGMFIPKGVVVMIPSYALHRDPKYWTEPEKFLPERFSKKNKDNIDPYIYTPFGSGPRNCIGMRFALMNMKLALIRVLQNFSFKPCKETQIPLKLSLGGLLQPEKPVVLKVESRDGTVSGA

[12] = Elimination half life in C57BL/6 mouse at 15 mg/kg, po measured for 24 hrs by LC/MS/MS analysis; assay type: ADME, organism-based; details: in vivo, read-out: beta t1/2 (converted)
[13] = Volume of distribution at steady state in C57BL/6 mouse at 15 mg/kg, po or 2 mg/kg, iv measured for 24 hrs by LC/MS/MS analysis; assay type: ADME, organism-based; details: in vivo
[14] = Clearance in C57BL/6 mouse at 2 mg/kg, iv measured for 24 hrs by LC/MS/MS analysis; assay type: ADME, organism-based; details: in vivo

Chain of Tyrosine-protein kinase JAK1 (P23458 whole entry): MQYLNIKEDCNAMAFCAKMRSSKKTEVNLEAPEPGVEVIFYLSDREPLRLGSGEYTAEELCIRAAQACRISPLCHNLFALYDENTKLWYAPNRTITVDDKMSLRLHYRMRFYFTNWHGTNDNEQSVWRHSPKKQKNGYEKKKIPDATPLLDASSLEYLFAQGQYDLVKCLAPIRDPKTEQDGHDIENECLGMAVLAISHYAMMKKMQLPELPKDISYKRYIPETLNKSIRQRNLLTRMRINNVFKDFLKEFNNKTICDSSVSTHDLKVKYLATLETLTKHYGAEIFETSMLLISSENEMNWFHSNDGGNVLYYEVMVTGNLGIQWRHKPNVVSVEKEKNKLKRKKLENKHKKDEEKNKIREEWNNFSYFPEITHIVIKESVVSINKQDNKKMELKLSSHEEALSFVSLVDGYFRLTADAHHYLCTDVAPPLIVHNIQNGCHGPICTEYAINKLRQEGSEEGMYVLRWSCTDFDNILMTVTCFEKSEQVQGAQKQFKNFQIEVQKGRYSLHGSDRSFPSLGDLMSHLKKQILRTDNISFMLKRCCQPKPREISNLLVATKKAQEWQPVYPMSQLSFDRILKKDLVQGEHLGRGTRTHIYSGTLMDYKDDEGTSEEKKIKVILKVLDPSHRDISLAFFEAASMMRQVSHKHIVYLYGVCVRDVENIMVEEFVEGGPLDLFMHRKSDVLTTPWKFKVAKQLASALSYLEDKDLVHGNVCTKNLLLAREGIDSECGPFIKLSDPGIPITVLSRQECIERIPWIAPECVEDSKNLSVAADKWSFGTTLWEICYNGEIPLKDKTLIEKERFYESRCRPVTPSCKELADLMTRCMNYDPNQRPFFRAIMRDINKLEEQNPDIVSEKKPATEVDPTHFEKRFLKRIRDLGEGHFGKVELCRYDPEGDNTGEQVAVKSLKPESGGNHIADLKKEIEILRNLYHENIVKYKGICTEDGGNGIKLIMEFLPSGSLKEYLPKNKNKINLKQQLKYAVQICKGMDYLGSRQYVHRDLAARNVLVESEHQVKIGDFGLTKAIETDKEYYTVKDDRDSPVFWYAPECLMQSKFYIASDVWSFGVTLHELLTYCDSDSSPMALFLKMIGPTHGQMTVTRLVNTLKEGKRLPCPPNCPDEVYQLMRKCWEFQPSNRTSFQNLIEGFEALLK

Structure (SMILES)	pIC50 [1]	pIC50 [2]	Ratio IC50 (Homo sapiens)	Papp B→A at 2 h, 10 µM [3] [×10⁻⁶ cm/s]	efflux ratio at 2 h, 10 µM [4]	fraction unbound at 4 h, 2 µM [5]	fraction unbound at 4 h, 2 µM [6]	fraction unbound at 4 h, 2 µM [7]	microsomal CLint at 1 µM [8] [µL/min/mg]	microsomal CLint at 1 µM [9] [µL/min/mg]	CLH [10] [µL/min/mg]	CLH [11] [µL/min/mg]	pIC50 (Cytochrome P450 2B6)	pIC50 (Cytochrome P450 2C19)	pIC50 (Cytochrome P450 2D6)	pIC50 (Cytochrome P450 3A4)	half-life [12] [h]	Vdss [13] [L/kg]	clearance [14] [mL/min/kg]
O=C(Nc1nc2cccc(C3CCC4(CC3)CCN(C(=O)[C@@H]3CC3(F)F)C4)n2n1)C1CC1 (some centres undefined)	7.51	7.17	2.2	31.2	19.5	0.088	0.112	0.205	15.7	11.3	25.6	< 6.4	< 4.00	4.19	< 4.00	< 4.00			
O=C(Nc1nc2cccc([C@H]3CC[C@@H](NC(=O)[C@@H]4CC4(F)F)CC3)n2n1)C1CC1	8.70	7.62	12	29.2	10.5	0.085	0.148	0.156	16.9	< 9.6	< 10.8	< 6.4	< 4.00	4.12	< 4.00	< 4.00	1.5	0.501	9.58
O=C(Nc1nc2cccc(C3CCC4(CC3)CCN(C(=O)[C@@H]3CC3(F)F)CC4)n2n1)C1CC1	8.52	7.59	8.7	29.1	6.77	0.056	0.057	0.067	< 9.6	< 9.6	< 6.4	< 6.4	< 4.00	5.31	< 4.00	< 4.00	4.74	0.942	14.9
O=C(Nc1nc2cccc(C3CCC4(CC3)CN(C(=O)[C@@H]3CC3(F)F)C4)n2n1)C1CC1						0.176	0.259	0.26	< 9.6	< 9.6	< 6.4	< 6.4					2.01	1.61	22.1
